Results on one compound are retold here after patent publication US20090114877A1, “Composition Containing Stability-Improved Chloromethyl Phosphate Derivatve and Process for Producing Same” (Eisai R&D Management Co., Ltd., priority 2005, published 2009).

Structures are written as SMILES.

The nature of this data set: Evaluation of storage stability (P-NMR integration values before and after storage). Here is the method: Note that evaluation of storage stability can be carried out by calculation of peak area derived from Compound (6) by high performance liquid chromatography or calculation of integration value by P-NMR measurement before and after storage.
Using the resulting di-tert-butyl chlorophosphate, N-methylmorpholine (NMM) and N,N-diisopropyl ethylamine (iPr2EtN) were added at given concentrations as tertiary amines, prior to concentrating the organic layer containing the phosphate. Then, after storing at a temperature of 40° C. for 3 hours (3 hr) or 6 hours (6 hr), integration values of di-tert-butyl chlorophosphate before and after storage were measured by P-NMR measurements. Note that the storage test at 40° C. was carried out using EYELA ChemStation (temperature accuracy of ±1° C.) as thermoregulated bath.

Setting [1] is: 0 mol % NMM added, 40° C., 3 hours storage test, FIG. 2.

Consider `CC(C)(C)OP(=O)(OCCl)OC(C)(C)C` [di-tert-butyl chlorophosphate, di-tert-butyl chloromethyl phosphate], for which the “amount of remaining di-tert-butyl chlorophosphate” value under setting [1] is 34%. Moreover, the “initial di-tert-butyl chlorophosphate decomposed” value under setting [1] was 66%. The “amount of di-tert-butyl chlorophosphate remaining” value reads like this: (1 mol % NMM added, 40° C., 3 hours storage test) 34%; (2.5 mol % NMM added, 40° C., 3 hours storage test) 88%. Besides, the “decomposition of di-tert-butyl chlorophosphate on storage” value (shortened to “decomposition”) (5 mol % NMM added, 40° C., 3 hours storage test, FIG. 2) was “not observed”; the “decomposition” value (5 mol % NMM added, stored at 40° C. for 3 hr or 6 hr, FIG. 1) is “no decomposition”; the “decomposition” value (5 mol % iPr2EtN added, stored at 40° C. for 3 hr or 6 hr, FIG. 1) is “no decomposition”; the “decomposition” value (10 mol % NMM added, storage at room temperature for 1.5 days) was “no decomposition”.
